Source: US6894075B2, “4′-demethyl-4′-O-substituted-1-deoxypodophyllotoxin derivative and geometric isomer thereof, process for the preparation thereof and anti-cancer composition comprising the same” (priority 2000, dated 2005)
Like-named read-outs stand apart in the source and are kept apart here.

Legend:
SK-MEL-2 cell = assay: Cytotoxicity test (SRB method) for SK-MEL-2 cells; type: cell-based, human; conditions: SK-MEL-2, SRB, 48 hours incubation
Excerpt: (§1) Human lung carcinomas A549 and […] were used for determining cytotoxicity of the compounds of the present invention according to the Sulfrhodamine-B (SRB) method which was developed by NCI in 1989 in order to determine in vitro anticancer activity of drugs.
(§2) Cells to be used in the experiment were separated from a surface using 0.5% Trypsin-EDTA solution and suspended in a density of 5×10^4 cell/ml therein. The cell suspension was introduced into a 96-well plate in an amount of 180/well and incubated for 24 hours in a 5% CO2 incubator of 37° C. Samples were dissolved in dimethylsulfoxide and then diluted by water distilled in advance for three times just before the experiment. Forty-one (41) samples were prepared into 4 types of final concentrations, i.e., 0.1, 0.03, 0.01 and 0.003 mg per ml of the medium. The diluted sample solutions were added to the 96-well plate in the amount of 20 μl/well and incubated for 48 hours in a CO2 incubator of 37° C. At the time of adding the samples, Tz (Time zero) plate was taken. The medium was removed from the Tz plate and each of the plates after incubation were completed. Ten (10)% […] (TCA) was added in the amount of […], and allowed to stand for 1 hour at 4° C. to fix the cells on the bottom surface of the plate. After the cells were fixed, the plate was washed five to six times with water to completely remove the remaining TCA solution and then dried at room temperature to completely remove the moisture. To the fully dried plate was introduced a dye solution in the amount of […] in which 0.4% SRB was dissolved in 1% acetic acid solution. […] After the dyeing process, the plate was dried again at room temperature. 100 ml of 10 mM Tris solution was added thereto in order to dissolve the dye, and then O.D. (optical density) was determined by microplate reader at 520 nm.
(§3) ED50 values for cancer cells were calculated as follows. The amount of SRB protein was analyzed at the time when incubation started by the addition of the sample. This amount was named time zero (Tz). The O.D. value obtained from a group which was not treated by the sample was named Control group (C) and the O.D. value obtained from a group which was treated by the sample was named Test group (T).
(§4) The degree of cytotoxicity of the compounds was calculated from Tz, C and T values according to the following equation.
(§5) That is, in the case of Tz≧T, the degree was calculated by
(§6) (T−Tz)/(C−Tz)×100(%), and
(§7) • in the case of Tz<T, the degree was calculated by […].
(§8) From the values thus obtained, ED50 value which is defined as the concentration at which growth of the cancer cell is inhibited by 50% was calculated using the regression function of Excel program.

A549 cell = assay: Cytotoxicity test (SRB method) for A549 cells; type: cell-based, human; conditions: for ED50(mg/mL) for A549: Table 2; for cytotoxicity compared with DPT: A549, in words
Excerpt: as §1, §2, §3, §4, §5, §6, §7, §8

[1] = A549 human lung cancer cell, SRB, 48 hours incubation, read-out: ED50(nM) for A549
[2] = A549, SRB, Table 2, unit printed in the cell, read-out: ED50 for A549, cells marked

COc1cc(C2c3cc4c(cc3CC3COC(=O)C32)OCO4)cc(OC)c1OC(=O)CCCCCCCCC(=O)O (stereo not shown) [Compound 1c-35, 4′-demethyl-4′-O-(9′-carboxy-nonanoyl)-1-deoxypodophyllotoxin]
ED50(mg/mL) for SK-MEL-2 (SK-MEL-2 cell): 0.015 mg/mL
ED50(mg/mL) for A549 (A549 cell; A549, SRB, 48 hours incubation): 0.014 mg/mL

COc1cc(C2c3cc4c(cc3CC3COC(=O)C32)OCO4)cc(OC)c1OC(=O)CCCCC(=O)O (stereo not shown) [Compound 1c-33, 4′-demethyl-4′-O-(5′-carboxy-pentanoyl)-1-deoxypodophyllotoxin]
ED50(mg/mL) for SK-MEL-2 (SK-MEL-2 cell): 0.062 mg/mL
ED50(mg/mL) for A549 (A549 cell; A549, SRB, 48 hours incubation): 0.258 mg/mL

CCCCCCCCCCCCCC(=O)Oc1c(OC)cc(C2c3cc4c(cc3CC3COC(=O)C32)OCO4)cc1OC (stereo not shown) [Compound 1c-12, 4′-demethyl-4′-O-tetradecanoyl-1-deoxypodophyllotoxin]
ED50(mg/mL) for SK-MEL-2 (SK-MEL-2 cell): 0.050 mg/mL
ED50(mg/mL) for A549 (A549 cell; A549, SRB, 48 hours incubation): 0.041 mg/mL

COc1cc(C2c3cc4c(cc3CC3COC(=O)C32)OCO4)cc(OC)c1OC(=O)NC(=O)CCl (stereo not shown) [Compound 1b-6, 4′-demethyl-4′-O-chloroacetylcarbamoyl-1-deoxypodophyllotoxin]
EC50 (A549 cell; [1]): 80.3 nM

CCCCCCCC/C=C\CCCCCCCCCC(=O)Oc1c(OC)cc(C2c3cc4c(cc3CC3COC(=O)C32)OCO4)cc1OC (stereo not drawn) [Compound 1c-25, 4′-demethyl-4′-O-(cis-11′-eicosenoyl)-1-deoxypodophyllotoxin]
ED50(mg/mL) for SK-MEL-2 (SK-MEL-2 cell): >5 mg/mL
ED50(mg/mL) for A549 (A549 cell; A549, SRB, 48 hours incubation): >5 mg/mL

COc1cc(C2c3cc4c(cc3CC3COC(=O)C32)OCO4)cc(OC)c1OC(=O)[C@H](C)N (stereo partly shown) [Compound 1a-1, 4′-demethyl-4′-O-alanoyl-1-deoxypodophyllotoxin]
cytotoxicity compared with DPT (A549 cell): stronger cytotoxicity than DPT
EC50 (A549 cell; [1]): 21.9 nM

COc1cc(C2c3cc4c(cc3CC3COC(=O)C32)OCO4)cc(OC)c1OC(=O)CN (stereo not shown) [Compound 1a-4, 4′-demethyl-4′-O-glycinoyl-1-deoxypodophyllotoxin]
EC50 (A549 cell; [1]): 102 nM

CCCCCCCCCCCCCCCC(=O)Oc1c(OC)cc(C2c3cc4c(cc3CC3COC(=O)C32)OCO4)cc1OC (stereo not shown) [Compound 1c-13, 4′-demethyl-4′-O-hexadecanoyl-1-deoxypodophyllotoxin]
ED50(mg/mL) for SK-MEL-2 (SK-MEL-2 cell): 0.290 mg/mL
ED50(mg/mL) for A549 (A549 cell; A549, SRB, 48 hours incubation): 0.268 mg/mL

COc1cc(C2c3cc4c(cc3CC3COC(=O)C32)OCO4)cc(OC)c1OC(=O)/C=C(C)/C=C/C=C(C)/C=C/C1=C(C)CCCC1(C)C (stereo not shown) [Compound 1c-32, 4′-demethyl-4′-O-retinoyl-1-deoxypodophyllotoxin]
ED50(mg/mL) for SK-MEL-2 (SK-MEL-2 cell): 0.387 mg/mL
ED50(mg/mL) for A549 (A549 cell; A549, SRB, 48 hours incubation): 2.130 mg/mL

COc1cc(C2c3cc4c(cc3CC3COC(=O)C32)OCO4)cc(OC)c1OC(=O)CCCCCCCCCCCCCCC(=O)O (stereo not shown) [Compound 1c-38, 4′-demethyl-4′-O-(15′-carboxy-pentadecanoyl)-1-deoxypodophyllotoxin]
ED50(mg/mL) for SK-MEL-2 (SK-MEL-2 cell): 0.027 mg/mL
ED50(mg/mL) for A549 (A549 cell; A549, SRB, 48 hours incubation): 0.106 mg/mL

CCNC(=O)Oc1c(OC)cc(C2c3cc4c(cc3CC3COC(=O)C32)OCO4)cc1OC (stereo not shown) [Compound 1b-1, 4′-demethyl-4′-O-ethylcarbamoyl-1-deoxypodophyllotoxin]
EC50 (A549 cell; [1]): 132 nM

CCC(=O)Oc1c(OC)cc(C2c3cc4c(cc3CC3COC(=O)C32)OCO4)cc1OC (stereo not shown) [Compound 1c-4, 4′-demethyl-4′-O-propanoyl-1-deoxypodophyllotoxin]
ED50(mg/mL) for SK-MEL-2 (SK-MEL-2 cell): 0.010 mg/mL
ED50(mg/mL) for A549 (A549 cell; A549, SRB, 48 hours incubation): 0.004 mg/mL

COc1cc(C2c3cc4c(cc3CC3COC(=O)C32)OCO4)cc(OC)c1OC(=O)CCCCCCCCCCCCC(=O)O (stereo not shown) [Compound 1c-37, 4′-demethyl-4′-O-(13′-carboxy-tridecanoyl)-1-deoxypodophyllotoxin]
ED50(mg/mL) for SK-MEL-2 (SK-MEL-2 cell): 0.070 mg/mL
ED50(mg/mL) for A549 (A549 cell; A549, SRB, 48 hours incubation): 0.019 mg/mL

CCCC(=O)Oc1c(OC)cc(C2c3cc4c(cc3CC3COC(=O)C32)OCO4)cc1OC (stereo not shown) [Compound 1c-5, 4′-demethyl-4′-O-butanoyl-1-deoxypodophyllotoxin]
ED50(mg/mL) for SK-MEL-2 (SK-MEL-2 cell): 0.017 mg/mL
ED50(mg/mL) for A549 (A549 cell; A549, SRB, 48 hours incubation): 0.005 mg/mL

COc1cc(C2c3cc4c(cc3CC3COC(=O)C32)OCO4)cc(OC)c1OC(=O)Nc1ccc(C)cc1 (stereo not shown) [Compound 1b-11, 4′-demethyl-4′-O-(4-methylphenylcarbamoyl)-1-deoxypodophyllotoxin]
EC50 (A549 cell; [1]): 99.3 nM

COc1cc(C2c3cc4c(cc3CC3COC(=O)C32)OCO4)cc(OC)c1OC(=O)NC(=O)c1ccccc1 (stereo not shown) [Compound 1b-15, 4′-demethyl-4′-O-benzoylcarbamoyl-1-deoxypodophyllotoxin]
EC50 (A549 cell; [1]): 77 nM

COc1cc(C=CC(=O)Oc2c(OC)cc(C3c4cc5c(cc4CC4COC(=O)C43)OCO5)cc2OC)cc(OC)c1OC (stereo not shown) [Compound 1c-1, 4′-demethyl-4′-O-(3,4,5-trimethoxyphenylcinnamoyl)-1-deoxypodophyllotoxin]
EC50 (A549 cell; [2]): 108 nM

COc1cc(C2c3cc4c(cc3CC3COC(=O)C32)OCO4)cc(OC)c1OC(=O)Nc1ccccc1 (stereo not shown) [Compound 1b-8, 4′-demethyl-4′-O-phenylcarbamoyl-1-deoxypodophyllotoxin]
EC50 (A549 cell; [1]): 177 nM

COc1cc(C2c3cc4c(cc3CC3COC(=O)C32)OCO4)cc(OC)c1OC(=O)Nc1ccc(SC)cc1 (stereo not shown) [Compound 1b-12, 4′-demethyl-4′-O-(4-methylthiophenylcarbamoyl)-1-deoxypodophyllotoxin]
EC50 (A549 cell; [1]): 106 nM

COc1cc(C2c3cc4c(cc3CC3COC(=O)C32)OCO4)cc(OC)c1OC(=O)C(N)CO (stereo not shown) [Compound 1a-5, 4′-demethyl-4′-O-serinoyl-1-deoxypodophyllotoxin]
cytotoxicity compared with DPT (A549 cell): stronger cytotoxicity than DPT
EC50 (A549 cell; [1]): 55 nM

C=CCNC(=O)Oc1c(OC)cc(C2c3cc4c(cc3CC3COC(=O)C32)OCO4)cc1OC (stereo not shown) [Compound 1b-7, 4′-demethyl-4′-O-allylcarbamoyl-1-deoxypodophyllotoxin]
EC50 (A549 cell; [1]): 90.5 nM

COc1cc(C2c3cc4c(cc3CC3COC(=O)C32)OCO4)cc(OC)c1OC(=O)Nc1ccc(F)cc1 (stereo not shown) [Compound 1b-9, 4′-demethyl-4′-O-(4-fluorophenylcarbamoyl)-1-deoxypodophyllo-toxin]
EC50 (A549 cell; [1]): 86.3 nM

COc1cc(C2c3cc4c(cc3CC3COC(=O)C32)OCO4)cc(OC)c1OC(=O)[C@@H](N)Cc1ccc(O)cc1 (stereo partly shown) [Compound 1a-9, 4′-demethyl-4′-O-tyrosinoyl-1-deoxypodophyllotoxin]
EC50 (A549 cell; [1]): 104 nM

COc1cc(C2c3cc4c(cc3CC3COC(=O)C32)OCO4)cc(OC)c1OC(=O)C(N)C(C)C (stereo not shown) [Compound 1a-3, 4′-demethyl-4′-O-valinoyl-1-deoxypodophyllotoxin]
EC50 (A549 cell; [1]): 88.2 nM

COc1cc(C2c3cc4c(cc3CC3COC(=O)C32)OCO4)cc(OC)c1OC(=O)Cc1ccc(N)cc1 (stereo not shown) [Compound 1a-16, 4′-demethyl-4′-O-(4-aminophenylacetyl)-1-deoxypodophyllotoxin]
EC50 (A549 cell; [1]): 114 nM

COc1cc(C2c3cc4c(cc3CC3COC(=O)C32)OCO4)cc(OC)c1OC(=O)Cc1ccc(N(C)C)cc1 (stereo not shown) [Compound 1c-2, 4′-demethyl-4′-O-(4-dimethylaminophenylacetyl)-1-deoxypodophyllotoxin]
EC50 (A549 cell; [2]): 106 nM

COc1cc(C2c3cc4c(cc3CC3COC(=O)C32)OCO4)cc(OC)c1OC(=O)NCc1ccccc1 (stereo not shown) [Compound 1b-14, 4′-demethyl-4′-O-benzylcarbamoyl-1-deoxypodophyllotoxin]
cytotoxicity compared with DPT (A549 cell): stronger cytotoxicity than DPT
EC50 (A549 cell; [1]): 72 nM

COc1cc(C2c3cc4c(cc3CC3COC(=O)C32)OCO4)cc(OC)c1OC(=O)NS(=O)(=O)c1ccccc1 (stereo not shown) [Compound 1b-16, 4′-demethyl-4′-O-benzenesulfonylcarbamoyl-1-deoxypodophyllo-toxin]
cytotoxicity compared with DPT (A549 cell): stronger cytotoxicity than DPT
EC50 (A549 cell; [1]): 50.6 nM

COc1ccc(NC(=O)Oc2c(OC)cc(C3c4cc5c(cc4CC4COC(=O)C43)OCO5)cc2OC)cc1 (stereo not shown) [Compound 1b-10, 4′-demethyl-4′-O-(4-methoxyphenylcarbamoyl)-1-deoxypodophyllotoxin]
EC50 (A549 cell; [1]): 95.6 nM

COc1ccccc1NC(=O)Oc1c(OC)cc(C2c3cc4c(cc3CC3COC(=O)C32)OCO4)cc1OC (stereo not shown) [Compound 1b-13, 4′-demethyl-4′-O-(2-methoxyphenylcarbamoyl)-1-deoxypodophyllotoxin]
cytotoxicity compared with DPT (A549 cell): stronger cytotoxicity than DPT
EC50 (A549 cell; [1]): 66.2 nM

COc1cc(C2c3cc4c(cc3CC3COC(=O)C32)OCO4)cc(OC)c1OC(=O)C(N)Cc1ccccc1 (stereo not shown) [Compound 1a-7, 4′-demethyl-4′-O-phenylalanoyl-1-deoxypodophyllotoxin]
EC50 (A549 cell; [1]): 86.6 nM
